{
  "source": "patent US7235577B1",
  "about": "(priority 2000, dated 2007)",
  "molecular_target": "T1, BK (hSloα) (Homo sapiens, UniProt Q12791)",
  "T1 construct": "expressed in transfected cells; host or cells: HEK-293",
  "T1 sequence (Q12791 whole entry)": "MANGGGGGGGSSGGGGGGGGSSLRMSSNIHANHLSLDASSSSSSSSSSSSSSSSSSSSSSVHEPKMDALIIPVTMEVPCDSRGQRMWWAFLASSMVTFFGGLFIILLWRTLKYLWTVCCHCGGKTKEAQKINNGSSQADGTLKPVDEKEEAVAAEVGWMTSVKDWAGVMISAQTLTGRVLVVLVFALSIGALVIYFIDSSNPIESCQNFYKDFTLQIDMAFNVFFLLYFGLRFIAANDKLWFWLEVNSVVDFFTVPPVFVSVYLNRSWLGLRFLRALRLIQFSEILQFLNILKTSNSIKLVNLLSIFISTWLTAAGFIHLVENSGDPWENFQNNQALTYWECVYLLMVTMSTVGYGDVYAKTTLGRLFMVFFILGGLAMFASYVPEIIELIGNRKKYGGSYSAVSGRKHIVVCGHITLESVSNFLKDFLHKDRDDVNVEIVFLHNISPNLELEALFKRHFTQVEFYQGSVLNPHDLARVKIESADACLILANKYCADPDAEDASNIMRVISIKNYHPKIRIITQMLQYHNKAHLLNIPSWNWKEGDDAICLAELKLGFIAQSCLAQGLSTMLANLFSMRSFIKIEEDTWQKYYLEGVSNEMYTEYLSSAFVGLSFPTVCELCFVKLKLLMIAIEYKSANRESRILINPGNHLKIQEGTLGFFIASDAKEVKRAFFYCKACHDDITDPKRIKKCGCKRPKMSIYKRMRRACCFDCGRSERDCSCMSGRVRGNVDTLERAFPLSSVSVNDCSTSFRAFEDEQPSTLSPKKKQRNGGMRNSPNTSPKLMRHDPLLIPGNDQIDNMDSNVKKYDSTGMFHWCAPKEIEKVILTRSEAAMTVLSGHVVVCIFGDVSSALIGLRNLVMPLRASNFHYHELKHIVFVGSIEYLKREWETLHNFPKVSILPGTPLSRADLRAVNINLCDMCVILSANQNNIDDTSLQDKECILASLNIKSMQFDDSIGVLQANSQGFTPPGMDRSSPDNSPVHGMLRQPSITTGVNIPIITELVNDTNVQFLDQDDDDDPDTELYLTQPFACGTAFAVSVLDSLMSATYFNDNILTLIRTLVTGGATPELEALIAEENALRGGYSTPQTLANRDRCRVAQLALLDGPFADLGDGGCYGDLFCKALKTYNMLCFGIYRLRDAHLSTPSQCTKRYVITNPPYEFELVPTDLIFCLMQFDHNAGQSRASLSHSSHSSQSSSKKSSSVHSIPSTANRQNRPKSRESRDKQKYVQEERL",
  "experiment": "Selectivity patch clamp, HEK-293 cells expressing hSloα (BKCa)",
  "format": "cell-based",
  "procedure": "L929 cells stably expressing mKv1.1, rKv1.2, mKv1.3, and mKv3.1 and MEL cells stably expressing hKv1.5 have been previously described (Grissmer 1994, Mol. Pharmacol. 45: 1227). hKv1.4 and rKv4.2 were stably expressed in LTK (HK1–7). Channel expression was induced 8–12 h before the electrophysiological experiments by 4 μM dexamethasone (Sigma). HEK-293 cells stably expressing the skeletal muscle sodium channel hSkM1 (SCN4A) were generated in the laboratory of Dr. F. Lehmann-Horn. HEK-293 cells stably expressing hSloα were obtained from Dr. Andrew Tinker (Center for Clinical Pharmacology, University College London). L929, MEL, LTK and HEK cells were maintained in DMEM containing 10% heat-inactivated fetal calf serum (Summit Biotechnology, Fort Collins, Colo.) and 250 μg/ml G418 (Life Technologies, Inc.). Rat basophilic leukemia (RBL) cells were maintained in Eagle's minimum essential medium with 2 mM L-glutamine and 10% fetal calf serum. CHO cell were maintained in F12K media (ATCC). Human leukemic Jurkat E6–1 cells were cultured in RPMI 1640 supplemented with 10% fetal calf serum and 1 mM L-glutamine. T84 cells were maintained in a 1:1 mixture of Ham's F12 medium and DMEM with 2.5 mM L-glutamine and 10% fetal calf serum.\nRecordings from the Jurkat SKCa channel were made in K^+ aspartate Ringer (Na^+ was replaced by K^+) with the same internal pipette solution. […]",
  "data": [
    {"smiles": "Clc1ccccc1C(c1ccccc1)(c1ccccc1)n1cccn1", "note": "[Compound T34, 1-[(2-Chlorophenyl)diphenylmethyl]-1H-pyrazole]", "values": [
      {"measurement": "Kd", "result": "25 ± 1.8", "unit": "µM"}
    ]}
  ]
}
